Experimental data as given in patent publication US5763596A, “C-4' modified adenosine kinase inhibitors” (Metabasis Therapeutics, Inc., priority 1996, dated 1998).
pIC50: −log10 of the molar value. Where two headings read alike, the source gives them in different places.

Legend:
[1] = system: isolated guinea pig hearts; conditions: in the absence of ADA inhibition; cited from earlier work
mice = conditions: cited from earlier work
rat brain slices = conditions: cited from earlier work
guinea pig brain slices = conditions: cited from earlier work
adenosine kinase = adenosine kinase (AK) inhibition; type: biochemical, pig heart or recombinant human; conditions: 0.5 μM [U-14C] adenosine, pH 7.0, 20 minutes
Description: Adenosine kinase activity was measured essentially as described by Yamada et al. (Yamada, Y., Goto, H., Ogasawara, N. (1988) Biochim. Biophys. Acta 660, 36-43.) with a few minor modifications. […] Natl. Acad. Sci. […] The reactions were incubated for 20 minutes at […] The assay was quenched upon spotting 30 μL aliquots onto 2 cm^2 pieces of Whatman DE81 anion exchange paper. The papersquares were washed for 3 minutes in 6 L distilled/deionized water to remove the unreacted adenosine. The washed squares were rinsed in 95% ethanol and dried in an oven at 100° C. for 10 minutes. The amount of ^14 C-AMP was quantified by scintillation counting.

Rats (male, Simonsen) = assay: formalin paw model; type: in vivo, rat; set-up: concentration or dose not given beside the values; conditions: oral, 90 min before formalin
Description: In this assay, injection of formalin, an irritant, into the hindpaw of rats typically evokes a biphasic response of pain-related behaviors. Phase 1 of the response which is brief, lasting approximately 0-5 min post-injection,is followed by a more prolonged phase 2, lasting approximately 10-80 min post-injection. Phase 1 behavior is thought to be a direct effect of the irritant on nociceptors at the injection site while phase 2 behavior is thought to include a hyperalgesic component mediated by sensitization of neuronal elements within the spinal cord. Studies from other laboratories have found the first portion of Phase 2 (sometimes referred to as Phase 2a) to be most responsive to pharmacological manipulation.
Rats (male, Simonsen) weighing between 100-200 g, are used in the present experiments. For screening purposes drugs are administered orally 90 min prior to initiation of formalin test. At designated intervals the animals in groups of 4 are placed individually in a small animal restrainer with the right hindpaw accessible through a hole in the bottom of the restrainer. The formalin paw assay is initiated by the injection using a 30G needle of 50 μl of a 5% formalin solution in saline into the right plantar surface of each hindpaw. The rat is then immediately placed in a separate plexiglass box and scoring (described below) of the animal's behavior is begun at 1.7 min after formalin injection. The instantaneous behavior of each animal in a group of 4 was observed and assigned a score once in each 20 second interval. This sequence is repeated over a 30 min period. The scoring protocol is an adaptation of the method published by Dubuisson and Dennis (Pain 4:161-174, 1977) which assigns a score from 0-3 as follows:
0--no discernible favoring of injected paw, weight evenly distributed
1--injected paw is favored, rests lightly on floor
2--injected paw is elevated
3--injected paw is vigorously licked, bitten or shake
Scores are continuously recorded directly onto an Excel spreadsheet. […] 2) the total number of incidences specifically of licking/biting behavior is summed over Phase 2 and mean values determined from 6 different animals with results expressed as % inhibition compared to vehicle control.

Rats = assay: anti-inflammatory activity, carrageenan paw; type: in vivo, rat; conditions: 10 mg/kg, swelling after 3 hours
Description: Carrageenan (Type λ) was suspended in sterile PBS at 1% (w/v), autoclaved for 30 minutes, and stored at room temperature. Rats were pretreated with vehicle or AK inhibitor (10 mg/kg) by oral gavage or i.p. administration and the volume of the left hind paw was measured using a water displacement plethysmometer (Stoelting Co., Wood Dale, Ill.). One hour after oral treatment or 30 minutes after i.p. treatment, the rats were briefly anaesthetized, and 0.1 ml of the carrageenan solution was injected subcutaneously into the planar surface of the left hind paw. The ensuing paw swelling was measured by plethysmometry after 3 hours. The paw volume in milliliters was subtracted from the pre-injection paw volume. Data are presented in Table 8 as the percent inhibition of paw swelling in AK inhibitor treated animals, compared to vehicle treated control animals.

male SA rats [2] = assay: anticonvulsant activity, maximal electroshock (MES) model; type: in vivo; conditions: Rattus norvegicus, ip, 1 h before MES; >5 / <5: fewer / more than 50% of animals inhibited at 5 mg/kg in initial screen
Description: The anticonvulsant activity of the tested compounds was evaluated in male SA rats (100-150 g, Simonsen) using the maximal electroshock (MES) model described in Swinyard et al., Antiepileptic Drugs, 3d Ed. at 85-102 (Levy, et al., eds.), NY: Raven Press (1989). The rats were maintained on a 12/12 light/dark cycle in temperature controlled facilities with free access to food and water. For p.o. administration, the animals are fasted overnight, prior to the experiment. One hour prior to seizure testing, the animals were injected interperitoneally (ip) or orally (per os, po) with one of various doses of test compound dissolved in DMSO or PEG 400.
Maximal electroshock seizures (MES) were induced by administering a 150 mA, 60 Hz current for 0.2 seconds via corneal electrodes using a Wahlquist Model H stimulator. […] This endpoint was expressed as the percentage of animals in which the response was inhibited. Typically, compounds were screened initially at one hour following a dose of 5 mg/kg ip. […] The results for exemplary compounds of the invention are set forth in Table 8, expressed as ED50 values.

male SA rats [3] = assay: rat skin lesion model, inhibition of neutrophil accumulation induced by carrageenan; type: in vivo; conditions: i.p.
Description: The dorsal skin of male SA rats was shaved and carrageenan (Type λ) or phosphate-buffered saline was injected intradermally. Three hours later, the injection sites were biopsied and weighed. Neutrophil content of the skin biopsies was measured as the quantity of myeloperoxidase (MPO) present in a tissue homogenate. The excised, weighed skin pieces were placed in 4 ml 0.5% mixed alkyl trimethylammonium bromide and homogenized at the highest speed for 15 seconds in a Polytron homogenizer (Brinkmann Instruments, Westbury, N.Y.). Lipids were extracted by adding 1 ml of dichloromethane to the homogenate, vortexing vigorously, and centrifuging at 1000 g, 5° C. for 15 min. Fifty μl of each supernatant was added in duplicate to a 96 well assay plate, along with dilutions of human myeloperoxidase standard. Potassium phosphate buffer (pH 6.1) containing 0.36 mg/ml of o-dianisidine dihydrochloride and 0.001% hydrogen peroxide was added (200 μl/well), and the absorbance at 450 nm was read after 5 min incubation at room temperature. The myeloperoxidase content of each skin piece was calculated from a standard curve constructed using least-square regression, and expressed as units of MPO/g of tissue.
AK inhibitors were administered orally using polyethylene glycol-400 as vehicle or intraperitoneally using dimethylsulfoxide as vehicle, at indicated time before skin lesion injection. For each experiment, the average of all values from saline-induced lesions was calculated. This baseline value was then subtracted from values obtained from carrageenan-induced lesions. Percent inhibition for AK inhibitors were calculated from these baseline-corrected values.

Female SA rats = assay: liver toxicity, serum SGOT, SGPT and total bilirubin; type: in vivo, rat; set-up: unit not given here; conditions: 2 x 37.5 μmol/kg i.v. infusion (total 75 μmol/kg), 12 h after second dose
Description: Female SA rats (150-200 g) were anesthetized with halothane and cannulated via the internal jugular vein. The animals were allowed to recover for 3 days. […] Twelve hours later, an additional 37.5 μmol kg was infused over 40 minutes (total dose=75 μmol/kg). Twelve hours after the second dose, the animals were anesthetized with halothane and exsanguinated through the descending aorta. Serum was prepared and liver enzymes (serum glutamic-oxaloacetic transaminase (SGOT), serum glutamic-pyruvic transaminase (SGPT)) and total bilirubin in the serum samples were determined by a commercial laboratory.

rat cardiomyocytes = conditions: adenosine deaminase inhibition alone; cited from earlier work
[4] = in vivo; cited from earlier work
isolated rat hearts = conditions: cited from earlier work

For `NC[C@H]1O[C@@H](n2cnc3c(N)ncnc32)[C@H](O)[C@@H]1O` [5'-amino-5'-deoxyadenosine], the adenosine release effect [1] is listed as “not apparent”.

For `C[C@H]1O[C@@H](n2cc(I)c3c(N)ncnc32)[C@H](O)[C@@H]1O` [5'-deoxy-5-iodotubercidin], the general flaccidity (mice) is given as “pronounced general flaccidity”, the adenosine uptake (rat brain slices) is given as “adenosine uptake was reportedly inhibited” and the adenosine uptake (guinea pig brain slices) is given as “adenosine uptake was reportedly inhibited”.

In the case of `O[C@@H]1[C@H](O)CO[C@H]1n1cc(-c2ccccc2)c2c(Nc3ccccc3)ncnc21` [compound 27], the pIC50 (adenosine kinase) was 8.40, the “% Inhibition Phase 1 Composite score” value (Rats (male, Simonsen); 1.7-5 min post-formalin) was 25.5% and the “% Inhibition Phase 2 Composite score” value (Rats (male, Simonsen); 10.3-30 min post-formalin) was 47.6%. The “% Inhibition Phase 2. Licking/biting” value (Rats (male, Simonsen); Phase 2) was 77.5%, the “Carrageenan Paw (% inh) i.p.” value (Rats; i.p., 30 min before carrageenan) was 44% and the “Carrageenan Paw (% inh) p.o.” value (Rats; p.o., 1 h before carrageenan) was 12%. The ED50 at 5 mg/kg (male SA rats [2]) was under 5 mg/kg, the “% inhibition of neutrophil accumulation” value (male SA rats [3]; pretreatment 30 min, 3 mg/kg) was 2% and the “% inhibition of neutrophil accumulation” value (male SA rats [3]; pretreatment 30 min, 10 mg/kg) was 59%. For the same compound, the “% inhibition of neutrophil accumulation” value (male SA rats [3]; pretreatment 30 min, 30 mg/kg) was 89%, the “% inhibition of neutrophil accumulation” value (male SA rats [3]; pretreatment 60 min, 10 mg/kg) was 60% and the “% inhibition of neutrophil accumulation” value (male SA rats [3]; pretreatment 120 min, 10 mg/kg) was 14%. For the same compound, the “% inhibition of neutrophil accumulation” value (male SA rats [3]; pretreatment 180 min, 10 mg/kg) was 2%, the “% inhibition of neutrophil accumulation” value (male SA rats [3]; pretreatment 240 min, 10 mg/kg) was 0% and the “% inhibition of neutrophil accumulation” value (male SA rats [3]; pretreatment 360 min, 10 mg/kg) was 0%. The “average serum Total Bilirubin” value (Female SA rats) was 0.14, the “average serum content of SGOT” value (Female SA rats) was 114 and the “average serum content of SGPT” value (Female SA rats) was 41.

In the case of `OC[C@H]1O[C@@H](n2cnc3c2N=CNC[C@H]3O)C[C@@H]1O` [2'-deoxycoformycin], the “effect on adenosine release from the cells” value (rat cardiomyocytes) is given as “no effect on adenosine release”.

In the case of `Nc1ncnc2c1c(I)cn2[C@@H]1O[C@H](CO)[C@@H](O)[C@H]1O` [5-iodotubercidin], the “protection against ischemic cerebral injury” value [4] is given as “apparently does not protect against ischemic cerebral injury”, the general flaccidity (mice) is given as “pronounced general flaccidity” and the adenosine uptake (rat brain slices) is given as “adenosine uptake was reportedly inhibited”. For the same compound, the “increase in perfusate adenosine concentration” value (isolated rat hearts; hypoxic, anoxic or ischemic conditions) was “no increase in perfusate adenosine concentration”, the “increase in perfusate adenosine concentration” value (isolated rat hearts; normoxic conditions) was “no increase in perfusate adenosine concentration” and the adenosine uptake (guinea pig brain slices) was “adenosine uptake was reportedly inhibited”.
